{"source": "patent US11896843B2", "about": "“Photodynamic therapy devices, systems and methods” (NATIONAL UNIVERSITY OF SINGAPORE, priority 2018, dated 2024)", "key": {"ROS production [1]": {"test_system": "ROS production", "assay": "ROS production in vitro under direct LED illumination of other photosensitizers", "details": "compared with Ce6", "text": "The system can be adapted for use with other photosensitizers."}, "[2]": {"test_system": "solid tumor from MB49 bladder cancer cells", "assay": "Cancer PDT in C57 BL/6 mice bearing MB49 tumors, wireless light delivery", "assay_type": "in vivo", "description": "Treatments were administered on Day 3 (T1) and Day 9 (T2) with a light dose of 1.3 mW over 30 min. Graphs show mean±s.d. (n=5 per group). The light dose was set to the same level (1.3 mW, 30 min) as used in the in vitro experiments. Devices were implanted in the interstitial space around a solid tumor grown to 4-6 mm diameter from MB49 bladder cancer cells subcutaneously injected into the hind region. After a recovery period, PDT was performed by intratumoral injection of Ce6 followed 4 hours later by wireless delivery of the light dose. […] Control groups were left untreated; received Ce6 injections only, received sham devices only, or given light doses using functional devices without Ce6 injection. […] Monitoring of tumor volume ended 13 days after first treatment, beyond which tumors in the majority of the mice from control groups either reached ethical size limits or were ulcerated. […] Tumor volumes cleared by PDT at the prescribed light dose are consistent with light transport calculations and measurements."}, "[3]": {"test_system": "solid tumor from MB49 bladder cancer cells", "assay": "Histology after a single round of PDT, wireless device versus direct laser illumination", "assay_type": "in vivo, mice", "description": "We compared the therapy to PDT by direct laser illumination, the current clinical standard, by histological examination of the tissue following a single round of treatment. […] The white lines labelled “T.B.” indicates a tissue boundary. Tumor-bearing mice were injected intratumorally with Ce6 and administered either the prior light dose using the wireless device or using a red laser (660 nm) collimated to a 5-mm diameter spot."}, "MB49 cells [4]": {"test_system": "MB49 cells", "assay": "Cell viability (MTS assay) of Ce6-incubated MB49 cells after irradiation", "assay_type": "cell-based, murine", "details": "for cell kill (MTS assay): 20 min irradiation, 1.3 mW", "description": "(§1) Using Ce6-incubated murine bladder cancer cells, ROS production was further validated against red laser irradiation, the current clinical standard, in two configurations: (i) cells directly exposed to the radio-frequency/laser source, and (ii) cells placed under thick (3 cm) porcine tissue, simulating light delivery to deep tissue regions.\n(§2) FIGS. 18a to 18d illustrate test configurations for investigating ROS production. FIG. 18a illustrates a test configuration in which laser light is directly incident on the MB49 cells and FIG. 18 illustrates a test configuration in which the laser light travels through 3 cm of tissue. The laser illumination was carried out with the following intensity 37.5 mW/cm^2, 4 J/cm^2. FIG. 18c illustrates a test configuration in which a wirelessly powered implantable device is powered without intervening tissue. For this configuration near-field (NF) wireless powering was used. FIG. 18d illustrates a test configuration in which a wirelessly powered implantable device is powered without though 3 cm of tissue. For this configuration mid-field (MF) wireless powering was used.\nChange in cell viability (MTS assay) following 20 min of irradiation in the above light delivery configurations is shown. The light dosing rate was 1.3 mW throughout. Groups include untreated cells, cells exposed to Ce6 alone, cells exposed to light alone and cells incubated with Ce6 and exposed to light from a laser or the device with or without intervening tissue section."}, "ROS production [5]": {"test_system": "ROS production", "assay": "ROS production by Ce6 illuminated with wireless LED mesh device (405 nm or 660 nm)", "details": "UV/violet (405 nm) light versus red (660 nm) light", "text": "Depending on the absorption spectrum of the photosensitizer used and the size of the tumor, the devices can be customized to emit a suitable light wavelength. The photosensitizer Ce6 (chlorin e6) has a strong absorption peak at 405 nm and a weaker one at 660 nm.\nFIG. 33A is a graph showing production of reactive oxygen species (ROS) by Ce6 when illuminated using a wireless illumination device emitting red (660 nm) light. FIG. 33B is a graph showing production of reactive oxygen species (ROS) by Ce6 when illuminated using a wireless illumination device emitting UV/violet (405 nm) light."}, "C6 rat glioma cells": {"test_system": "C6 rat glioma cells", "assay": "Cell kill in C6 rat glioma by UV light triggered PDT", "assay_type": "cell-based", "details": "Ce6 PDT triggered by UV/violet light emitting devices, in vitro"}, "MB49 cells [6]": {"test_system": "MB49 cells", "assay": "Cellular ROS production (Image-iT live Green ROS sensor fluorescence)", "assay_type": "cell-based, murine", "description": "as §1, §2\nFIGS. 21a to 21g show florescence images of treated cells and control cells. FIGS. 21a and 21b show cells treated following incubation with Ce6 and illuminated with respectively, the direct laser configuration and, the though tissue laser configuration. FIGS. 21c and 21d show cells treated following incubation with Ce6 and illuminated with respectively, the near field (direct) wireless configuration and, the though tissue (mid field) wireless configuration. FIGS. 21e to 21g show control scenarios. […] The results were obtained from a fluorogenic, cell-permeable ROS sensor (Image-iT live Green ROS).\nIn all cases, significant cell death resulted from oxidative stress."}, "ROS production [7]": {"test_system": "ROS production", "assay": "ROS production in Ce6 solution around device implanted in adult pig model", "details": "5 μM Ce6 solution; device 5.1 cm deep on liver surface, wirelessly powered through tissue; vs control solution with no Ce6", "description": "To illustrate that the implantable illumination devices could be powered through thick tissue at depths relevant to human scales, ROS production studies were conducted in an adult pig model.\nFIGS. 16a to 16c show computed tomography (CT) reconstructions of the radio-frequency transmitter and device implanted an adult pig model.\nThe control (No Ce6) was a control solution with no Ce6 and the test solution was a solution containing 5 μM Ce6."}, "MB49 cells [8]": {"test_system": "MB49 cells", "assay": "Apoptosis index (TUNEL assay) in MB49 cells", "assay_type": "cell-based, murine", "description": "as §2\nCell death could be attributed to apoptosis, a widely accepted mechanism for PDT-mediated cytotoxicity. Apoptosis index (TUNEL assay) including positive and negative controls from the assay are shown."}, "[9]": {"details": "intratumoral Ce6 + red laser (660 nm), 5-mm spot"}, "[10]": {"details": "intratumoral Ce6 + wireless device light dose"}}}
{"compound": "[Zn+2].c1ccc2c(c1)-c1nc-2nc2[n-]c(nc3nc([n-]c4nc(n1)-c1ccccc1-4)-c1ccccc1-3)c1ccccc21", "note": "[zinc phthalocyanine]", "values": [{"measurement": "levels of ROS in vitro (normalized fluorescence)", "setting": "ROS production [1]", "result": "comparable levels of ROS"}]}
{"compound": "Chlorin e6 [Ce6]", "values": [{"measurement": "body weight over the treatment period", "setting": "[2]; across all groups of mice incl. Ce6 + wireless light", "result": "did not show appreciable weight loss"}, {"measurement": "tumor volume as a function of time", "setting": "[2]; intratumoral Ce6, wireless light dose 1.3 mW 30 min 4 hours later, two treatments, monitored to 13 days after first treatment, vs control groups", "result": "suppression, and in some cases complete regression, of tumors"}, {"measurement": "apoptotic cells in resected tumors (TUNEL staining)", "setting": "[2]; treatment group (Ce6 + wireless light) compared to control groups", "result": "significantly greater population of apoptotic cells"}, {"measurement": "apoptosis in explanted tumor tissues (TUNEL staining)", "setting": "[3]; [9]", "result": "comparable apoptosis"}, {"measurement": "damage in tissues adjacent to the tumor (TUNEL staining)", "setting": "[3]; [9]", "result": "did not show significant damage"}, {"measurement": "apoptosis in explanted tumor tissues (TUNEL staining)", "setting": "[3]; [10]", "result": "comparable apoptosis"}, {"measurement": "damage in tissues adjacent to the tumor (TUNEL staining)", "setting": "[3]; [10]", "result": "did not show significant damage"}, {"measurement": "change in cell viability (MTS assay)", "setting": "MB49 cells [4]; Ce6 + laser illumination obstructed by thick (3 cm) tissue, P=0.178", "result": "did not result in a significant difference in cell viability"}, {"measurement": "change in cell viability (MTS assay)", "setting": "MB49 cells [4]; Ce6 + laser illumination, direct", "result": "effective at reducing cell viability"}, {"measurement": "cell kill (MTS assay)", "setting": "MB49 cells [4]; Ce6 + wireless light delivery through thick (3 cm) tissue (mid-field), P=0.0039", "result": "~80", "unit": "%"}, {"measurement": "cell kill (MTS assay)", "setting": "MB49 cells [4]; Ce6 + wireless light delivery, direct (near-field), P=0.0027", "result": "~80", "unit": "%"}, {"measurement": "ROS yield", "setting": "ROS production [5]", "result": "ROS yield is higher"}, {"measurement": "cell death", "setting": "C6 rat glioma cells", "result": "about 80%"}, {"measurement": "ROS-induced fluorescence signal", "setting": "MB49 cells [6]; Ce6 + laser illumination, beam obstructed with thick tissue", "result": "insignificant ROS-induced fluorescence"}, {"measurement": "ROS-induced fluorescence signal", "setting": "MB49 cells [6]; Ce6 + laser illumination, direct irradiation", "result": "effective only under direct irradiation"}, {"measurement": "ROS-induced fluorescence signal", "setting": "MB49 cells [6]; Ce6 + wireless illumination, close proximity to radio-frequency source", "result": "increased signal"}, {"measurement": "ROS-induced fluorescence signal", "setting": "MB49 cells [6]; Ce6 + wireless illumination, through thick tissue", "result": "increased signal"}, {"measurement": "ROS production", "setting": "MB49 cells [6]; Ce6 exposure alone (no light)", "result": "did not result in significant ROS production"}, {"measurement": "ROS production in Ce6 solution", "setting": "ROS production [7]", "result": "significant ROS production"}, {"measurement": "apoptosis index (TUNEL assay)", "setting": "MB49 cells [8]; Ce6 + laser, direct", "result": "high apoptosis"}, {"measurement": "apoptosis index (TUNEL assay)", "setting": "MB49 cells [8]; Ce6 + laser, through 3 cm tissue", "result": "low and comparable to the untreated control scenario"}, {"measurement": "apoptosis index (TUNEL assay)", "setting": "MB49 cells [8]; Ce6 + wireless device, direct (near-field)", "result": "high apoptosis"}, {"measurement": "apoptosis index (TUNEL assay)", "setting": "MB49 cells [8]; Ce6 + wireless device, through 3 cm tissue (mid-field)", "result": "high apoptosis"}]}
